Measurements as given in ChEMBL document CHEMBL1129306, “3-((4-(4-Chlorophenyl)piperazin-1-yl)-methyl)-1H-pyrrolo-2,3-b-pyridine: an antagonist with high affinity and selectivity for the human dopamine D4 receptor” (J Med Chem, 1996).

Legend:
D(4) dopamine receptor = target: T1, D(4) dopamine receptor (Homo sapiens, UniProt P21917); experiment: biochemical
T1 sequence (P21917 whole entry): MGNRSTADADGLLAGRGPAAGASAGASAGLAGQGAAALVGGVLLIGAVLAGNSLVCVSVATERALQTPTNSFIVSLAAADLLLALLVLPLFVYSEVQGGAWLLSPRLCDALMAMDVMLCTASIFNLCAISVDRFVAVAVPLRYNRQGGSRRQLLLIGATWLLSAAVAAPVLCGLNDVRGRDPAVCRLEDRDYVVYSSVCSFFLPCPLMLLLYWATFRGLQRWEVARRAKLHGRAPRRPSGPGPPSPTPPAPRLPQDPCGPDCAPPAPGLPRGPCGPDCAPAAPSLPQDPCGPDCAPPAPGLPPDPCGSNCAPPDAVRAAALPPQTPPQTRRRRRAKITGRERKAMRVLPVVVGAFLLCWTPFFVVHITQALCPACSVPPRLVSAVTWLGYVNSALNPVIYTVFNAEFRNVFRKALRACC
Description: Binding affinity towards cloned human Dopamine receptor D4 stably expressed in CHO cells was evaluated using [3H]spiperone as radioligand

D(3) dopamine receptor = D(3) dopamine receptor (Homo sapiens, UniProt P35462); experiment: biochemical
D(3) dopamine receptor, sequence (P35462 whole entry): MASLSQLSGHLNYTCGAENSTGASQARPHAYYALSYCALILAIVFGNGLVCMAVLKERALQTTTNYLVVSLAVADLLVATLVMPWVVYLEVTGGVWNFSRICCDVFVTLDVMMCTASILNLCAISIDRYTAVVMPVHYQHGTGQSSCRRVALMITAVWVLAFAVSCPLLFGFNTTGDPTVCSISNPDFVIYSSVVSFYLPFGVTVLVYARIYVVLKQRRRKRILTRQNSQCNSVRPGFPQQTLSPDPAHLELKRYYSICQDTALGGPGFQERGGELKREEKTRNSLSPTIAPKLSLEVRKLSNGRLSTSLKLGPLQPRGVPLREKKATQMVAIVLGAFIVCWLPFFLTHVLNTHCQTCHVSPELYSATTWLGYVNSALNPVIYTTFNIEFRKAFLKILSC
Description: Binding affinity towards cloned human Dopamine receptor D3 stably expressed in CHO cells was evaluated using [3H]spiperone as radioligand

SMILES	Ki (D(4) dopamine receptor) [nM]	Ki (D(3) dopamine receptor) [nM]
OC1(c2ccc(Cl)cc2)CCN(Cc2c[nH]c3ccccc23)CC1	220	100
CC1CCN(Cc2c[nH]c3ccccc23)CC1	570	6700
c1ccc2c(CN3CCCCC3)c[nH]c2c1	> 2600	> 3700
c1ccc(C2CCN(Cc3c[nH]c4ccccc34)CC2)cc1	25	95
c1ccc(N2CCN(Cc3c[nH]c4ccccc34)CC2)cc1	8	280
Ic1ccc(N2CCN(Cc3c[nH]c4ncccc34)CC2)cc1	0.51	> 4500
